In patent US10752613B2, “Compounds and their use for reducing uric acid levels” (Acquist LLC, priority 2016, dated 2020):
“Also recorded” adds a separate entry of the source.

Biological target: xanthine oxidase (Homo sapiens (Human), UniProt P47989)
Test: Fluorescence-based xanthine oxidase activity assay
Type: biochemical
Conditions: for IC50: fluorescence-based assay, triplicate, 10 concentrations; for Xanthine oxidase inhibition compared with allopurinol: comparison in words

Chain of xanthine oxidase (P47989 whole entry, species assumed): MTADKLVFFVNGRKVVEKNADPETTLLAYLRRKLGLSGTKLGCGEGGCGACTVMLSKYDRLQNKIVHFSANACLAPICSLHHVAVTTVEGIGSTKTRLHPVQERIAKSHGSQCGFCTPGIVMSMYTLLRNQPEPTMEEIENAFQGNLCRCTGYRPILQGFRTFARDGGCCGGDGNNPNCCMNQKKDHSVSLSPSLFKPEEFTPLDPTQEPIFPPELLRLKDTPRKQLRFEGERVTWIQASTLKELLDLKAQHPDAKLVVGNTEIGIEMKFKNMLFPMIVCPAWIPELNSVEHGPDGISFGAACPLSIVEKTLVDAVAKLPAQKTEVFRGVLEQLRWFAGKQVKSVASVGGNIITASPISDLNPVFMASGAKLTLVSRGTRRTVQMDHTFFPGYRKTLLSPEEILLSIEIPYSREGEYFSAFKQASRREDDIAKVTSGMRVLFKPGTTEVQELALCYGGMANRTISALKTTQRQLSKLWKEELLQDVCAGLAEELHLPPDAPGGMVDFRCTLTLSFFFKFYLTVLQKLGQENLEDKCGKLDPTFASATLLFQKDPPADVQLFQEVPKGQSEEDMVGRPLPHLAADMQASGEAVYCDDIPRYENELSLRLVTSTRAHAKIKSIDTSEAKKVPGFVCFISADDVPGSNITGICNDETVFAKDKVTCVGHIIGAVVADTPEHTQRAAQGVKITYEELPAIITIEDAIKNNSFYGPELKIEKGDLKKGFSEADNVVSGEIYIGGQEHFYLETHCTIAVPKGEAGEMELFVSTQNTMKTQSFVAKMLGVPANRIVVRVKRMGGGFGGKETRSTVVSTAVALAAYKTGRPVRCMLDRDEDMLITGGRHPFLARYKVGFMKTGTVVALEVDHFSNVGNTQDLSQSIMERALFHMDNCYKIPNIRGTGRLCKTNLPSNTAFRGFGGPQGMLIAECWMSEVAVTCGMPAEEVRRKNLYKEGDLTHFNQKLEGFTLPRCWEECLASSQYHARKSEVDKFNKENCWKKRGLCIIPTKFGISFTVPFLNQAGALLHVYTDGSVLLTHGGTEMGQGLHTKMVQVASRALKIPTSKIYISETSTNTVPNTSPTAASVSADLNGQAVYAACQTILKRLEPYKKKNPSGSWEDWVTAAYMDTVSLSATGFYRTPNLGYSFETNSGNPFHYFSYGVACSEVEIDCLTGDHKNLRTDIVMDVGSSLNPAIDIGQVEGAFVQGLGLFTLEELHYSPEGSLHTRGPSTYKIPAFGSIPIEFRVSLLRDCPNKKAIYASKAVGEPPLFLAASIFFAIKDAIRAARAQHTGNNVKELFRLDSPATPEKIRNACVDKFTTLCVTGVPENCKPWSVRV

Row | SMILES | IC50 [µM] | Xanthine oxidase inhibition compared with allopurinol
1 | O=C(Nc1ccc(-n2cc(C(F)(F)F)cn2)cc1)c1c(O)[nH]c(=O)[nH]c1=O [Formula (Ik), 6-hydroxy-2,4-dioxo-N-(4-(4-(trifluoromethyl)-1H-pyrazol-1-yl)phenyl)-1,2,3,4-tetrahydropyrimidine-5-carboxamide] | 68 | 
2 | O=C(Nc1ccc(-c2cn[nH]c2)cc1)c1c(O)[nH]c(=O)[nH]c1=O [Formula (If), N-(4-(1H-pyrazol-4-yl)phenyl)-6-hydroxy-2,4-dioxo-1,2,3,4-tetrahydropyrimidine-5-carboxamide] | 70.1 | 
3 | O=C(Nc1ccc(-c2c[nH]nn2)c(C(F)(F)F)c1)c1c(O)[nH]c(=O)[nH]c1=O [Formula (Ig), N-(4-(1H-1,2,3-triazol-5-yl)-3-(trifluoromethyl)phenyl)-6-hydroxy-2,4-dioxo-1,2,3,4-tetrahydropyrimidine-5-carboxamide] | 2.2 | comparable to allopurinol
4 | O=C(Nc1ccc(-c2cc(O)n[nH]2)cc1)c1c(O)[nH]c(=O)[nH]c1=O [Formula (Ii), 6-hydroxy-N-(4-(3-hydroxy-1H-pyrazol-5-yl)phenyl)-2,4-dioxo-1,2,3,4-tetrahydropyrimidine-5-carboxamide] | 1.3 | more potent inhibitors of xanthine oxidase than allopurinol
5 | O=C(Nc1ccc(-c2cc(C(F)(F)F)n[nH]2)cc1)c1c(O)[nH]c(=O)[nH]c1=O [Formula (Il), 6-hydroxy-2,4-dioxo-N-(4-(3-(trifluoromethyl)-1H-pyrazol-5-yl)phenyl)-1,2,3,4-tetrahydropyrimidine-5-carboxamide] | 67.9 | 
6 | O=C(Nc1ccc(-c2c[nH]nn2)cc1C(F)(F)F)c1c(O)[nH]c(=O)[nH]c1=O [Formula (Ih), N-(4-(1H-1,2,3-triazol-5-yl)-2-(trifluoromethyl)phenyl)-6-hydroxy-2,4-dioxo-1,2,3,4-tetrahydropyrimidine-5-carboxamide] | 1.2 | more potent inhibitors of xanthine oxidase than allopurinol; also recorded: comparable to allopurinol
7 | O=C(Nc1ccc(-c2cn[nH]c2C(F)(F)F)cc1)c1c(O)[nH]c(=O)[nH]c1=O [Formula (Ij), 6-hydroxy-2,4-dioxo-N-(4-(5-(trifluoromethyl)-1H-pyrazol-4-yl)phenyl)-1,2,3,4-tetrahydropyrimidine-5-carboxamide] | 16.3 | 
8 | O=C(Nc1cccc(-c2cn[nH]n2)c1)c1c(O)[nH]c(=O)[nH]c1=O [Formula (Ia), N-(3-(1H-1,2,3-triazol-5-yl)phenyl)-6-hydroxy-2,4-dioxo-1,2,3,4-tetrahydropyrimidine-5-carboxamide] | 6.5 | 
9 | O=C(Nc1ccc(-c2nc(C(F)(F)F)n[nH]2)cc1)c1c(O)[nH]c(=O)[nH]c1=O [Formula (Ie), 6-hydroxy-2,4-dioxo-N-(4-(3-(trifluoromethyl)-1H-1,2,4-triazol-5-yl)phenyl)-1,2,3,4-tetrahydropyrimidine-5-carboxamide] | 14.5 | 
10 | O=C(Nc1ccc(-c2nn[nH]c2-c2ccccc2)cc1)c1c(O)[nH]c(=O)[nH]c1=O [Formula (Ic), 6-hydroxy-2,4-dioxo-N-(4-(4-phenyl-1H-1,2,3-triazol-5-yl)phenyl)-1,2,3,4-tetrahydropyrimidine-5-carboxamide] | 12.2 | 
11 | O=C(Nc1ccc(-c2[nH]ncc2C(F)(F)F)cc1)c1c(O)[nH]c(=O)[nH]c1=O [Formula (Im), 6-hydroxy-2,4-dioxo-N-(4-(4-(trifluoromethyl)-1H-pyrazol-5-yl)phenyl)-1,2,3,4-tetrahydropyrimidine-5-carboxamide] | 25.2 | 
